Consider 5 compounds from patent publication US7507739B2, “6-[(substituted)phenyl]triazolopyrimidines as anticancer agents” (Wyeth, priority 2003, dated 2009).

The subject of one experiment is KB-V1 cells. The experiment in a line: MTS cytotoxicity test with KB-V1 cells (very high P-glycoprotein). The settings on record: for IC50: Homo sapiens, KB-V1 cells, MTS; for Ratio VI/KB: IC50 on KB VI cells/IC50 on KB cells; for recognition by P-glycoprotein: inferred from IC50 on KB-V1 compared to parental KB line. Type of experiment: cell-based, human. The text has this:
(§1) Human cancer cell lines, unless otherwise noted, are obtained from the American Type Culture Collection (Rockville, Md.). The following drug-sensitive parental cell lines, and their derived drug-resistant counterparts, are obtained from the originators as listed: (a) S1 (parental line from a subclone of human colon carcinoma line LS174T) and derived S1-M1-3.2 (herein called S1-M1) which expresses the MXR drug transporter protein, are provided by Dr. L. Greenberger, Wyeth Research (Rabindran, S. K., He, H., Singh, M., Brown, E., Collins, K. I., Annable, T., and Greenberger, L. M. Reversal of a novel multidrug resistance mechanism in human colon carcinoma cells by fumitremorgin C. Cancer Res., 58:5850-5858,1998); (b) parental HL-60 human promyelocytic leukemia line and derived HL-60/ADR, which expresses the MRP1 drug transporter protein, are provided by Dr. M. Center, University of Kansas (McGrath, T., and Center, M. S. Adriamycin resistance in HL60 cells in the absence of detectable P-glycoprotein. Biochem. Biophys. […] J. Biol. Chem., 261: 7762-7770,1986) via Dr. L. Greenberger, Wyeth Research.
(§2) The assay, which is sold in kit form by Promega (Madison, Wis.; CellTiter 96 AQueous Non-Radioactive Cell Proliferation Assay), is based on the conversion by viable cells, but not by dead cells, of the tetrazolium salt, MTS (3-(4,5-dimethylthiazol-2-yl)-5-(3-carboxymethoxyphenyl)-2-(4-sulphophenyl)-2H-tetrazolium, inner salt), into a water-soluble colored formazan which is detected by spectrophotometry. Compounds are tested at nine concentrations, in order to determine IC50 values. For the test procedure, cells are harvested by trypsinization (or, in the case of non-adherent cells, by simple resuspension), washed, counted and distributed to wells of 96-well flat-bottom microtiter plates at 1000 cells per well in 200 μL of medium. In addition, one row of wells on a separate plate received cells as above (“time 0” plate). All plates are incubated at 37° in humidified 5% CO2 in air for about 24 hr.
(§3) On day 2, compounds for test are diluted and added to wells. Compounds are dissolved in DMSO at 10 mg/mL. For each compound, nine serial 2-fold dilutions are prepared in DMSO. Ten μL of each dilution in DMSO is transferred to 100 μL of medium, mixed well, and then 5 μL of this dilution is transferred in quadruplicate to wells containing cells. […] Plates are returned to the incubator for three days. At the time of drug addition to the experimental plates, the MTS assay is run on the “time 0” plate. This produced the “time 0 MTS value” which is related to the number of viable cells per well at the time of drug addition.
(§4) After three days of culture with test compounds (day 5 overall), the MTS assay is done on all wells of the experimental plates. The absorbance values of the quadruplicate sample wells are averaged and divided by the average of the “time 0” values. […] The nine values for each compound are plotted against concentration, and the concentration that produced a relative color yield half way between the maximum and minimum is taken as the IC50 value.
The KB lines express different amounts of the P-glycoprotein (MDR1) membrane pump which produces resistance to the action of many cytotoxic compounds, including paclitaxel and vincristine. The parental KB line expresses no P-glycoprotein, KB-8-5 expresses moderate levels of the protein, and KB-V1 expresses very high levels.
On the technique in general: Tetrazolium dyes change colour on reduction, which living cells bring about.

The next experiment concerns HL-60 cells. Briefly: MTS cytotoxicity test with HL-60 cells. The settings on record: Homo sapiens; HL-60 cells, MTS; read-out: IC50 HL-60. The format is cell-based.
Text: as §1, §2, §3, §4
HL-60/ADR cells overexpress the multidrug resistance protein MRP1 which mediates resistance to some chemotherapeutics (Gottesman, M. M., Fojo, T., and Bates, S. E. Multidrug resistance in cancer: role of ATP-dependent transporters. Nature Rev. Cancer, 2: 48-58, 2002). The IC50 values of representative examples of this invention, as well as reference compounds, on HL-60/ADR are compared to values on the sensitive parental HL-60 line.

For another experiment, the system named is S1 cells. The experiment in a line: MTS cytotoxicity test with S1 cells. The format is cell-based. The conditions noted are these: Homo sapiens.
Text: as §1, §2, §3, §4
S1-M1 cells overexpress the MXR transporter which mediates resistance to some chemotherapeutics (Gottesman, M. M., Fojo, T., and Bates, S. E. Miltidrug resistance in cancer: role of ATP-dependent transporters. Nature Rev. Cancer, 2: 48-58, 2002). The IC50 values of representative examples of this invention, as well as reference compounds, on S1-M1 are compared to values on the sensitive parental S1 line.

The test system of a further experiment is pure tubulin. The experiment in a line: Tubulin polymerization test with pure tubulin without GTP. Type of experiment: biochemical, bovine. The conditions noted are these: no GTP. Summed up: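 GTP-free polymerization using >99% pure bovine brain tubulin in PEM buffer (pH 6.9); centrifuged supernatant added to compounds. Duplicates at six 3-fold dilutions from 24.3 μM, read at 35°.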

A further experiment has as its system tubulin heterodimer. Briefly: Competitive binding test, [3H]colchicine. More on the design: species or system bovine. The conditions noted are these: [3H]colchicine 50 nM. Here is the method: Medium is RPMI-1640 with L-glutamine, supplemented with 10% heat-inactivated fetal calf serum, 100 units/ml penicillin, and 100 μg/ml streptomycin (Gibco, Grand Island, N.Y.). Microtubule-associated protein (MAP)-rich tubulin, containing about 70% tubulin and 30% MAPs (#ML113), and highly purified tubulin (>99% pure, #TL238), both from bovine brain, are obtained from Cytoskeleton, Inc., Denver, Colo. PEM buffer (80 mM piperazine-N,N′-bis[2-ethanesulfonic acid], pH 6.9, 1 mM ethylene glycol-bis(β-aminoethyl ether)-N,N,N′,N′-tetraacetic acid, 1 mM magnesium chloride) and guanosine 5′-triphosphate (GTP) are also obtained from Cytoskeleton. [3H]paclitaxel, specific activity 14.7 Ci/mmol, is purchased from Moravek Biochemicals (Brea, Calif.). [^3H]vinblastine, specific activity 9.60 Ci/mmol and MicroSpin G-50 columns are obtained from Amersham Biosciences (Piscataway, N.J.). […] Other reagents are obtained from Sigma (St. Louis, Mo.).
The binding of examples of this invention to highly purified tubulin is studied by competitive inhibition methods. […] To study possible competition at the taxane site, on the other hand, polymerized tubulin (microtubules) is used because paclitaxel binds preferentially to microtubules.
Highly purified tubulin is dissolved in PEM buffer without GTP and used at a final concentration of 1.0 to 1.3 mg/ml (10 to 13 μM). […] These solutions are incubated at 24° for 1 hr and then applied to MicroSpin G-50 columns which are centrifuged for 2 min at 3000 rpm in an Eppendorf 5415C microfuge. An aliquot of each column effluent (containing tubulin and bound radioligand) is mixed with scintillation fluid and counted in a liquid scintillation spectrometer. […] The ability of the competitor to inhibit the binding of the radioligand is expressed as a percentage of control binding in the absence of any competitor.

The structures appear in SMILES notation. Where only a bound is given, the exact number is not on record here.

With `CN(C)CCCOc1cc(F)c(-c2c(Cl)nc3ncnn3c2NCC(F)(F)F)c(F)c1.Cl` [Example 4a, 5-Chloro-6-{4-[3-(dimethylamino)propoxy]-2,6-difluorophenyl}-N-(2,2,2-trifluoroethyl)[1,2,4]triazolo[1,5-a]pyrimidin-7-amine Hydrogen chloride Salt], in the experiment with KB-V1 cells, the IC50 (usually the concentration that inhibits the measured activity by half) worked out at 0.162 µM, the “Ratio VI/KB” value was determined as 7 and the “recognition by P-glycoprotein” value was “show recognition by P-glycoprotein”. In the experiment with HL-60 cells, the IC50 came out at 0.052 µM. The compound also registered an IC50 with S1 cells of 0.072 µM. For the same compound, the “absorbance increase, polymerization of pure tubulin” value (from here on “absorbance increase, polymerization”) in the experiment on pure tubulin (2.7 μM) is recorded as “no effect”. Moreover, the “absorbance increase, polymerization” value with pure tubulin (8.1 μM) was “lower and less rapid increase”. Also, in the experiment on pure tubulin (24.3 μM), the “A340 at 0 min” value was 0, the “A340 at 5 min” value was determined as 0.14, the “A340 at 10 min” value is listed as 0.16 and the “A340 at 15 min” value came out at 0.16. Also, in the experiment on pure tubulin (24.3 μM), the “A340 at 20 min” value was 0.15. Further, the “absorbance increase, polymerization” value in the experiment with pure tubulin (24.3 μM, first 5 min) is listed as “rapid increase in absorbance”. In addition, the “[3H]Colchicine binding, percent of control without competitor, Mean” value in the experiment on tubulin heterodimer amounted to 134%.

Regarding `OCCCOc1cc(F)c(-c2c(Cl)nc3ncnn3c2C2CCCCCC2)c(F)c1` [Example 30, 3-[4-(5-Chloro-7-cycloheptyl[1,2,4]triazolo[1,5-a]pyrimidin-6-yl)-3,5-difluorophenoxy]propan-1-ol], in the experiment on KB-V1 cells, the IC50 is 0.097 µM and the “recognition by P-glycoprotein” value is “not recognized at all by P-glycoprotein”. The IC50 in the experiment with HL-60 cells was determined as 0.055 µM. The IC50 in the experiment with S1 cells was determined as 0.066 µM. Moreover, in the experiment with pure tubulin (24.3 μM), the “A340 at 0 min” value is on record as 0, the “A340 at 5 min” value was 0.02, the “A340 at 10 min” value was determined as 0.01 and the “A340 at 15 min” value came out at 0.01. For the same compound, the “A340 at 20 min” value in the experiment with pure tubulin (24.3 μM) came to 0.01. Further, the “[3H]Colchicine binding, percent of control without competitor, Mean” value in the experiment with tubulin heterodimer is recorded as 112%.

Turning to `C[C@H](Nc1c(-c2c(F)cc(OCCCN(C)C)cc2F)c(Cl)nc2ncnn12)C(F)(F)F.Cl` [Example 1a, 5-chloro-6-{4-[3-(dimethylamino)propoxy]-2,6-difluorophenyl}-N-[(1S)-2,2,2-trifluoro-1-methylethyl][1,2,4]triazolo[1,5-a]pyrimidin-7-amine hydrogen chloride Salt], in the experiment on KB-V1 cells, the IC50 stood at 0.103 µM, the “Ratio VI/KB” value is 3.7 and the “recognition by P-glycoprotein” value was “show recognition by P-glycoprotein”. Further, the IC50 with HL-60 cells was 0.071 µM. Further, in the experiment with S1 cells, the midpoint of inhibition, the IC50, lay at 0.073 µM. The “absorbance increase, polymerization” value in the experiment on pure tubulin (2.7 μM) is listed as “no effect”. Besides, the “absorbance increase, polymerization” value in the experiment with pure tubulin (8.1 μM) was “lower and less rapid increase”. In addition, in the experiment on pure tubulin (24.3 μM), the “A340 at 0 min” value is 0, the “A340 at 5 min” value came out at 0.22, the “A340 at 10 min” value is 0.23 and the “A340 at 15 min” value was 0.22. The “A340 at 20 min” value in the experiment on pure tubulin (24.3 μM) was 0.21. In the experiment on pure tubulin (24.3 μM, first 5 min), the “absorbance increase, polymerization” value is “rapid increase in absorbance”. Besides, in the experiment on tubulin heterodimer, the “[3H]Colchicine binding, percent of control without competitor, Mean” value came out at 129%.

Consider `CC[C@]1(O)C[C@H]2CN(CCc3c([nH]c4ccccc34)[C@@](C(=O)OC)(c3cc4c(cc3OC)N(C=O)[C@H]3[C@@](O)(C(=O)OC)[C@H](OC(C)=O)[C@]5(CC)C=CCN6CC[C@]43[C@@H]65)C2)C1` [Vincristine, reference compound], for which, in the experiment on KB-V1 cells, the half-inhibitory concentration (IC50) was above 1 µM and the “Ratio VI/KB” value was above 156. Further, in the experiment on KB-V1 cells (listed as vincristine), the “Ratio VI/KB” value is above 156. For the same compound, in the experiment with HL-60 cells, the IC50 turned out to be 0.0025 µM. The same compound gave an IC50 with S1 cells of 0.0056 µM. Besides, in the experiment on pure tubulin (24.3 μM), the “A340 at 0 min” value is on record as 0, the “A340 at 5 min” value is 0.01, the “A340 at 10 min” value amounted to 0.01 and the “A340 at 15 min” value worked out at 0. The “A340 at 20 min” value in the experiment on pure tubulin (24.3 μM) stood at 0. In addition, in the experiment on tubulin heterodimer, the “[3H]Colchicine binding, percent of control without competitor, Mean” value is on record as 99%.

Take `CNCCCOc1cc(F)c(-c2c(Cl)nc3ncnn3c2C2CCCCCC2)c(F)c1.O=C(O)C(F)(F)F` [Example 32, 3-[4-(5-Chloro-7-cycloheptyl[1,2,4]triazolo[1,5-a]pyrimidin-6-yl)-3,5-difluorophenoxy]-N-methylpropan-1-amine trifluoroacetic acid salt]: in the experiment on KB-V1 cells, the IC50 was found to be 0.108 µM, the “Ratio VI/KB” value came out at 9.9 and the “recognition by P-glycoprotein” value is “show recognition by P-glycoprotein”. Moreover, the IC50 in the experiment on HL-60 cells is 0.0071 µM. In addition, the IC50 with S1 cells came to 0.011 µM. Besides, the “absorbance increase, polymerization” value with pure tubulin (2.7 μM) was “no effect”. In addition, the “absorbance increase, polymerization” value with pure tubulin (8.1 μM) is “lower and less rapid increase”. In addition, in the experiment on pure tubulin (24.3 μM), the “A340 at 0 min” value was found to be 0, the “A340 at 5 min” value was 0.26, the “A340 at 10 min” value was determined as 0.26 and the “A340 at 15 min” value is 0.25. In the experiment on pure tubulin (24.3 μM), the “A340 at 20 min” value amounted to 0.25. Also, the “absorbance increase, polymerization” value in the experiment on pure tubulin (24.3 μM, first 5 min) is given as “rapid increase in absorbance”. Besides, the “[3H]Colchicine binding, percent of control without competitor, Mean” value in the experiment on tubulin heterodimer came to 94%.
